# Experimental data from the supplement of paper PMC10307832.
# Experiments:
# Experiment in all cases: relative viability (nuclei count vs DMSO), 5 days (fraction); higher = more cells survive
# [1] = compound: O=C(O)c1ccc2c(c1)nc(Nc1cccc(Cl)c1)c1ccncc12 [Silmitasertib] + NC(=O)Nc1cc(-c2cccc(F)c2)sc1C(=O)N[C@H]1CCCNC1 [AZD7762] (partner 0.2 µM)
# Method in brief: (§1)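 Relative viability divides the nuclei count in treated wells by that in vehicle wells. Lung cancer cell lines were seeded in 1536-well plates, dosed by pin tool the next day, and fixed and stained after 5 days in one step with final 0.05% Triton X-100, 1% formaldehyde and 1 ug/ml Hoechst. Dosing was a single drug or a fixed anchor-drug dose plus five library-drug doses (not always all listed) in √10 steps, and values are medians of duplicate plates imaged at 4×.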
# [2] = compound: O=C(O)c1ccc2c(c1)nc(Nc1cccc(Cl)c1)c1ccncc12 [Silmitasertib] + COc1cccc2cc(-c3nc([C@H]4CC[C@H](C(=O)O)CC4)n4ncnc(N)c34)[nH]c12 [OSI-027] (partner 0.5 µM)
# Method in brief: as §1
# [3] = compound: O=C(O)c1ccc2c(c1)nc(Nc1cccc(Cl)c1)c1ccncc12 [Silmitasertib] + CCNC(=O)c1noc(-c2cc(C(C)C)c(O)cc2O)c1-c1ccc(CN2CCOCC2)cc1 [Luminespib] (partner 0.01 µM)
# Method in brief: as §1
# [4] = compound: O=C(O)c1ccc2c(c1)nc(Nc1cccc(Cl)c1)c1ccncc12 [Silmitasertib] + CC(=O)Nc1cccc(-n2c(=O)n(C3CC3)c(=O)c3c(Nc4ccc(I)cc4F)n(C)c(=O)c(C)c32)c1 [Trametinib] (partner 0.02 µM)
# Method in brief: as §1
# [5] = compound: O=C(O)c1ccc2c(c1)nc(Nc1cccc(Cl)c1)c1ccncc12 [Silmitasertib] + O=C(CCCCCCC(=O)Nc1ccccc1)NO [Vorinostat] (partner 1 µM)
# Method in brief: as §1
Cell Line,relative viability ([1]; first compound 0.04 µM),relative viability ([1]; first compound 0.4 µM),relative viability ([1]; first compound 1.265 µM),relative viability ([1]; first compound 4 µM),relative viability ([2]; first compound 0.04 µM),relative viability ([2]; first compound 0.4 µM),relative viability ([2]; first compound 1.265 µM),relative viability ([2]; first compound 4 µM),relative viability ([3]; first compound 0.04 µM),relative viability ([3]; first compound 0.4 µM),relative viability ([3]; first compound 1.265 µM),relative viability ([3]; first compound 4 µM),relative viability ([4]; first compound 0.04 µM),relative viability ([4]; first compound 0.4 µM),relative viability ([4]; first compound 1.265 µM),relative viability ([4]; first compound 4 µM),relative viability ([5]; first compound 0.04 µM),relative viability ([5]; first compound 0.4 µM),relative viability ([5]; first compound 1.265 µM),relative viability ([5]; first compound 4 µM)
LU99A,0.339,0.382,0.276,0.283,0.276,0.293,0.314,0.255,0.272,0.361,0.259,0.201,0.5,0.549,0.38,0.461,0.519,0.546,0.482,0.374
LXF-289,1.13,–,1.29,1.28,0.78,–,0.805,0.532,0.592,–,0.652,0.647,0.666,–,0.752,0.836,0.751,–,0.747,0.862
NCI-H23,0.29,0.153,0.344,0.165,0.706,–,0.423,0.206,0.217,0.197,0.215,0.217,0.439,0.323,0.365,0.36,0.6,0.281,0.545,0.165
NCI-H322M,0.554,0.608,0.562,0.405,0.619,0.467,0.383,0.372,0.968,0.893,0.693,0.44,0.61,0.5,0.47,0.553,0.994,0.936,0.968,0.653
NCI-H358,0.633,0.574,0.595,0.567,1.09,0.349,0.519,0.376,0.39,–,0.22,0.192,0.163,0.127,0.145,0.143,0.774,0.652,0.677,0.692
NCI-H441,1.34,–,1.09,1.16,0.629,–,0.337,0.26,0.369,–,0.329,0.242,0.562,–,0.313,0.231,0.935,–,0.822,0.843
NCI-H460,0.608,0.671,0.759,0.384,0.822,0.688,0.64,0.672,0.0354,0.0304,0.0278,0.0318,0.201,0.196,0.131,0.0739,0.722,0.747,0.668,0.842
NCI-H522,0.89,0.841,0.822,0.819,0.739,0.762,0.684,0.67,1.71,0.859,0.938,1.24,0.715,0.68,0.814,0.817,0.99,0.715,0.929,0.863
NCI-H596,1.04,1.08,0.953,0.957,0.749,0.471,0.68,0.472,0.948,0.843,0.918,1,0.765,0.684,0.764,0.796,0.768,0.616,0.611,0.375
NCI-H647,0.513,0.364,0.404,0.19,0.775,0.578,0.503,0.44,0.159,0.268,0.241,0.133,0.524,0.57,0.399,0.431,0.868,0.666,0.672,0.704
NCI-H650,1.17,0.524,0.907,0.982,0.699,0.424,0.515,0.366,0.886,0.599,0.436,0.457,1.01,0.567,0.666,1.21,0.626,0.281,0.475,0.244
NCI-H727,0.773,0.573,0.654,0.543,0.701,0.426,0.48,0.488,0.332,0.274,0.404,0.358,0.415,0.338,0.328,0.348,1.36,0.822,0.83,1.16
NCI-H838,0.828,0.864,1.03,0.951,0.456,–,0.425,0.274,0.29,–,0.338,0.217,0.673,0.489,0.463,0.309,0.787,0.837,0.807,0.848
NCI-H1355,0.729,–,0.776,0.679,0.438,–,0.371,0.345,0.776,–,0.69,0.576,0.454,–,0.393,0.367,0.664,–,0.622,0.499
NCI-H1395,0.425,0.42,0.421,0.41,0.731,0.552,0.591,0.477,0.635,0.562,0.539,0.713,1.07,0.809,1.03,1.14,0.93,0.616,0.662,0.538
NCI-H1437,1.2,1.06,1.02,1.06,0.946,0.623,0.598,0.457,1.17,1.04,1.03,0.823,0.493,0.466,0.353,0.274,0.844,0.787,0.701,0.43
NCI-H1651,0.505,0.449,0.481,0.675,0.822,0.667,0.642,0.704,0.985,1.01,0.916,0.71,0.881,0.714,0.84,0.848,0.572,0.456,0.335,0.594
NCI-H1666,0.915,0.857,0.763,0.627,0.812,0.732,0.652,0.615,1.04,0.955,0.708,0.634,0.915,0.728,0.876,0.752,1.06,0.845,0.855,0.689
NCI-H1734,0.555,0.445,0.544,0.513,0.626,0.522,0.593,0.497,0.185,0.209,0.186,0.202,0.737,0.664,0.63,0.581,0.849,0.705,0.874,0.582
NCI-H1755,0.407,0.479,0.528,0.494,0.726,0.764,0.728,0.721,0.378,0.627,0.364,0.525,0.74,0.779,0.826,0.864,0.756,0.633,0.526,0.72
NCI-H1793,0.725,0.457,0.654,0.515,0.329,0.192,0.27,0.217,0.21,0.152,0.157,0.161,0.503,0.425,0.371,0.488,0.989,0.619,0.718,0.213
NCI-H1915,0.752,–,0.77,0.535,0.624,–,0.676,0.351,0.83,–,0.77,0.669,0.334,–,0.304,0.254,0.54,–,0.519,0.413
NCI-H1944,0.591,0.399,0.547,0.528,0.409,0.382,0.424,0.295,0.549,0.653,0.765,0.793,0.419,0.403,0.481,0.429,0.595,0.459,0.647,0.531
NCI-H1975,0.775,–,0.647,0.795,0.67,–,0.645,0.66,0.199,–,0.184,0.136,0.613,–,0.297,0.315,0.766,–,0.687,0.69
NCI-H1993,0.925,0.653,0.721,0.663,0.544,0.56,0.614,0.658,0.874,0.697,0.621,0.617,0.584,0.609,0.578,0.586,0.911,0.553,0.659,0.514
NCI-H2085,0.974,0.702,0.86,0.858,0.914,–,0.704,0.466,0.409,–,0.422,0.386,0.641,0.454,0.423,0.386,0.837,0.638,0.725,0.548
NCI-H2087,1.34,1.1,1.35,0.817,0.507,–,0.513,0.18,0.148,–,0.179,0.142,0.26,0.186,0.135,0.134,0.669,0.506,0.672,0.589
NCI-H2126,1.05,0.836,1.09,0.934,0.725,–,0.596,0.602,0.915,0.901,0.777,0.853,0.578,0.521,0.467,0.501,0.863,0.607,0.693,0.406
